Measured values taken from PMC2818678 (Bioorganic & medicinal chemistry, 2009).
Values belong to the compound of their own block, whether it stands above or below them.

Tests used:
[1] = target: human A2A adenosine receptor (hA2AAR) (Homo sapiens, UniProt P29274); conditions: at 10 μM; [3H]37; HEK293 cells expressing hA2AAR; ref Tosh et al.[9]; cited from earlier work
[2] = target: T1, human A1 adenosine receptor (hA1AR) (Homo sapiens, UniProt P30542); conditions: at 10 μM; [3H]36; CHO cells expressing hA1AR; ref Tosh et al.[9]; cited from earlier work
T1 sequence (P30542 1-326): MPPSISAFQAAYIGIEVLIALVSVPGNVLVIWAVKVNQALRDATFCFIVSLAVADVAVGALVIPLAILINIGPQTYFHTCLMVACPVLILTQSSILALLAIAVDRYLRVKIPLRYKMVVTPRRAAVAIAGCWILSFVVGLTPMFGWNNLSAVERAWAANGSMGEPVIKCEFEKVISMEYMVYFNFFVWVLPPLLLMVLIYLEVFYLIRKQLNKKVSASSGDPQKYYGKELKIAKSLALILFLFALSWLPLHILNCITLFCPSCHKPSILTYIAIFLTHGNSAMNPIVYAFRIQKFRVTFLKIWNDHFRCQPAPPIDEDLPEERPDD

[3] = target: T2, human A3 adenosine receptor (hA3AR) (Homo sapiens, UniProt P0DMS8); assay: Radioligand binding at human A3AR; conditions: for Selectivity for hA3AR in comparison to A1 and A2AARs (in words): inhibition curves, Figure 1; for Affinity at the A3AR (in words): binding
T2 sequence (P0DMS8 1-318): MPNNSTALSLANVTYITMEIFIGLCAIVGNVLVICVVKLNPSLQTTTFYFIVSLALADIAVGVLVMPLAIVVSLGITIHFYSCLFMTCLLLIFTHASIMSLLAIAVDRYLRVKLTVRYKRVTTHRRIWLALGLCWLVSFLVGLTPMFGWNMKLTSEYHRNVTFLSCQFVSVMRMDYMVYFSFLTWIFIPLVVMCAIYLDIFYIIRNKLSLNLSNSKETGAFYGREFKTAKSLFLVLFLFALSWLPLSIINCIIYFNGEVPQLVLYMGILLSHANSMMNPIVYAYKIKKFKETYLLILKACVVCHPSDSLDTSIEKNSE

[4] = target: T3, human A3AR (Homo sapiens, UniProt P0DMS8); assay: Inhibition of forskolin-stimulated cAMP production in A3AR-expressing CHO cells; assay type: cell-based; conditions: inhibition of forskolin-stimulated cAMP at 10 μM, NECA as reference standard
T3 sequence (P0DMS8 1-318): T2 sequence (P0DMS8 1-318)

[5] = target: T1, human A1 adenosine receptor (hA1AR); assay: Radioligand binding at human A1AR; conditions: read-out: % inhibition of radioligand binding, A1

Sequence of human A2A adenosine receptor (hA2AAR) (P29274 whole entry): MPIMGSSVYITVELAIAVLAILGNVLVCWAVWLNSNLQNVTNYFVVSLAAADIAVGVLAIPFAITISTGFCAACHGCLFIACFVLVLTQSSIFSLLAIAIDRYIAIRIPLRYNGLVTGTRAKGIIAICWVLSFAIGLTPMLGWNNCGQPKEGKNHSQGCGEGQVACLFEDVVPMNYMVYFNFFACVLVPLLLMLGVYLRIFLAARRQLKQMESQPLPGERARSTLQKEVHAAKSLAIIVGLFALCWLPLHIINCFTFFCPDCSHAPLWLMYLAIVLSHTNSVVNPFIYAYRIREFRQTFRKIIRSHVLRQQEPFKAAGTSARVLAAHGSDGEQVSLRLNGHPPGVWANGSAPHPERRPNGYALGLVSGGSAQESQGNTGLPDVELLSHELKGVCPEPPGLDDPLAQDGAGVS

Structure (SMILES): CNC(=O)[C@@]12C[C@@H]1[C@@H](n1cnc3c(NCc4cccc(Cl)c4)nc(C#CCCC(=O)NCCNC(=O)CCCCC4SCC5NC(=O)NC54)nc31)[C@H](O)[C@@H]2O (some centres unmarked) [Compound 2]
% inhibition of radioligand binding, A2A [1]: (51±2%)
% inhibition of radioligand binding, A1 [2]: (1±1%)

Structure (SMILES): CNC(=O)[C@@]12C[C@@H]1[C@@H](n1cnc3c(NCc4cccc(Cl)c4)nc(C#CCCCCc4cn(CCCCCCNC(=O)c5ccc(-c6c7ccc(=N)c(S(=O)(=O)O)c-7oc7c(S(=O)(=O)O)c(N)ccc67)c(C(=O)O)c5)nn4)nc31)[C@H](O)[C@@H]2O [Compound 23]
inhibition at 10 µM [5]: 0%

Structure (SMILES): CCN1\C(=C/C=C/C=C/C2=[N+](CCCCCC(=O)NCCNC(=O)CCC#Cc3nc(NCc4cccc(Cl)c4)c4ncn([C@H]5[C@H](O)[C@H](O)[C@]6(C(=O)NC)C[C@H]56)c4n3)c3ccc(S(=O)(=O)[O-])cc3C2(C)C)C(C)(C)c2cc(S(=O)(=O)O)ccc21 [Compound 1]
% inhibition of radioligand binding, A1 [2]: (36±3%)

Structure (SMILES): CNC(=O)[C@H]1O[C@@H](n2cnc3c(NCc4cccc(I)c4)ncnc32)[C@H](O)[C@@H]1O [IB-MECA, N^6-(3-iodobenzyl)-5′-N-methylcarboxamidoadenosine, reference compound]
A3AR agonist efficacy (in words) [4]: full agonists

Structure (SMILES): CNC(=O)[C@@]12C[C@@H]1[C@@H](n1cnc3c(NCc4cccc(Cl)c4)nc(C#CCCC(=O)NCCNC(=O)CCCCCNC(=O)CCCCC4SCC5NC(=O)NC54)nc31)[C@H](O)[C@@H]2O (some centres unmarked) [Compound 3]
% inhibition of radioligand binding, A2A [1]: (47±11%)
% inhibition of radioligand binding, A1 [2]: (12±4%)

Continued, values first:

Selectivity for hA3AR in comparison to A1 and A2AARs (in words) [3]: highly selective
A3AR agonist efficacy (in words) [4]: partial agonist
Structure (SMILES): CNC(=O)[C@@]12C[C@@H]1[C@@H](n1cnc3c(NCc4cccc(Cl)c4)nc(C#CCCCCc4cn(C56CC7CC(CC(C7)C5)C6)nn4)nc31)[C@H](O)[C@@H]2O [Compound 18, (1S,2R,3S,4R,5S)-6-(3-Chlorobenzylamino)-(2-(6-(1-(adamantyl)-1H-1,2,3-triazol-4-yl)hex-1-ynyl)-9H-purin-9-yl)-2′,3′-dihydroxybicyclo[3.1.0]hexane-1′-carboxylic acid N-methylamide]

Affinity at the A3AR (in words) [3]: only moderate affinity
Structure (SMILES): CNC(=O)[C@@]12C[C@@H]1[C@@H](n1cnc3c(NCc4cccc(Cl)c4)nc(C#CCCCCc4cn(CCCCN)nn4)nc31)[C@H](O)[C@@H]2O [Compound 16, (1S,2R,3S,4R,5S)-6-(3-Chlorobenzylamino)-(2-(6-(1-(4-aminobutyl)-1H-1,2,3-triazol-4-yl)hex-1-ynyl)-9H-purin-9-yl)-2′,3′-dihydroxybicyclo[3.1.0]hexane-1′-carboxylic acid N-methylamide]

Affinity at the A3AR (in words) [3]: only moderate affinity
Structure (SMILES): CNC(=O)[C@@]12C[C@@H]1[C@@H](n1cnc3c(NCc4cccc(Cl)c4)nc(C#CCCCCc4cn(Cc5ccc(-n6sccc6=O)cc5)nn4)nc31)[C@H](O)[C@@H]2O [Compound 19]

Fold more potent in A3AR binding than higher butyl homologue 17 ([3]; compared with 17): 4 fold
Selectivity for hA3AR in comparison to A1 and A2AARs (in words) [3]: highly selective
A3AR agonist efficacy (in words) [4]: highly efficacious agonists
Structure (SMILES): CNC(=O)[C@@]12C[C@@H]1[C@@H](n1cnc3c(NCc4cccc(Cl)c4)nc(C#CCCCCc4cn(CCNC(C)=O)nn4)nc31)[C@H](O)[C@@H]2O [Compound 15, (1S,2R,3S,4R,5S)-6-(3-Chlorobenzylamino)-(2-(6-(1-(4-acetamidoethyl)-1H-1,2,3-triazol-4-yl)hex-1-ynyl)-9H-purin-9-yl)-2′,3′-dihydroxybicyclo[3.1.0]hexane-1′-carboxylic acid N-methylamide]
